Measured values published in patent US9518038B2, “Condensation product of theanine derivative and carboxylic acid coumarin derivative, its intermediate, preparation method and use thereof” (SHANDONG YINGDONG YINGHAO BIOTECHNOLOGY, INC., priority 2012, dated 2016).
Like-named read-outs stand apart in the source and are kept apart here.

Experiments:
[1] = system: human brain tumor cells Daoy; experiment: MTT growth inhibition, Daoy cells; assay type: cell-based; settings: Homo sapiens, 72 h after treatment, read-out: Drug concentration (IC50) at which 50% cancer cells survived
From the text: (§1) Cell lines and cell culture: human lung cancer cells A549 and H460, human breast cancer cells MCF-7 and MDA-MB-231, human gastric cancer cells BGC-823, human prostate cancer cells PC-3, human chronic leukemia cells K562, human lymphoma cells U937, human liver cancer cells SMMC7721 and HepG2, human colon cancer cells HT29, human pancreatic cancer cells PANC-1 and BxPC3, human cervical cancer Hela cell lines, human brain tumor cells Daoy, human neuroma cells D54 and human oral epidermoid cancer cells KBV200 line with strong drug resistance, mouse melanoma cells B16, and highly metastatic Lewis lung cancer cell lines were purchased from American Type Culture Collection of the U.S. These cells were cultured with DMEM and RPMI-1640 culture solutions separately.
(§2) The procedure was as follows:
(§3) (1) 0.25% trypsin was used to digest cancer cells in a logarithmic growth phase to prepare a single-cell suspension, the concentration of cells was adjusted to 5×10^4/mL, and the adjusted suspension was inoculated into a 96-well culture plate with 100 μl per well;
(§4) (2) The culture plate was transferred into a 37° C. incubator with a saturated humidity and 5% of CO2 and cultured for 24 h; the compounds and the intermediates thereof obtained in embodiments 1-7 and the compound as represented by formula (IIIa) or the positive control anti-cancer drug with the concentration of 1-1000 μM/L were added to enable the final concentration to be 0.1-1500 μM/L. Control wells (only added with 200 μl of cell suspension) and drug-free blank control wells (containing the solvent of 0.01% DMSO) were set, each group included 8 wells, and the plate was placed into the 37° C. incubator with saturated humidity and 5% of CO2 for culturing;
(§5) (3) The 96-well plate was taken out at 48 h and 72 h after dosing, the original culture medium was carefully removed by suction, 100 μl of serum-free DMEM culture medium and 10 μl of MTT (5 mg/mL) solution were added in each well. The plate was continuously cultured for another 4 h and then the culture was terminated;
(§6) (4) The supernatant in the wells was carefully removed by suction, each well was added with 150 μl of DMSO and shaked at room temperature for 10-15 min to fully dissolve crystals.
(§7) (5) Colorimetric analysis: the wavelength was selected as 570 nm, the light absorbance (A value) of each well was determined on the microplate reader and the results were recorded; the experiment was repeated for three times;
(§8) (6) the experimental results were calculated according to the following formula: relative survival rate=(A value of each experimental group/A value of cell control group)×100%
(§9) Calculation of median-effect concentration (IC50, namely the drug concentration at which the inhibition rate is 50%, also known as half inhibitory concentration):
(§10) IC50 of the detected component was calculated by using a regression equation.

mouse melanoma cells B16 = experiment: MTT growth inhibition, B16 cells; assay type: cell-based; settings: Mus musculus, 72 h after treatment, read-out: Drug concentration (IC50) at which 50% cancer cells survived
From the text: as §1, §2, §3, §4, §5, §6, §7, §8, §9, §10

[2] = system: human lung cancer cells A549; experiment: MTT growth inhibition, A549 cells; assay type: cell-based; settings: 72 h after treatment, read-out: Drug concentration (IC50) at which 50% cancer cells survived
From the text: as §1, §2, §3, §4, §5, §6, §7, §8, §9, §10

[3] = system: human lung cancer cells H460; experiment: MTT growth inhibition, H460 cells; assay type: cell-based; settings: NCI-H460, 72 h after treatment, read-out: Drug concentration (IC50) at which 50% cancer cells survived
From the text: as §1, §2, §3, §4, §5, §6, §7, §8, §9, §10

[4] = system: human cervical cancer Hela cell lines; experiment: MTT growth inhibition, Hela cells; assay type: cell-based; settings: Homo sapiens, 72 h after treatment, read-out: Drug concentration (IC50) at which 50% cancer cells survived
From the text: as §1, §2, §3, §4, §5, §6, §7, §8, §9, §10

[5] = system: human breast cancer cells MCF-7; experiment: MTT growth inhibition, MCF-7 cells; assay type: cell-based; settings: MCF7, 72 h after treatment, read-out: Drug concentration (IC50) at which 50% cancer cells survived
From the text: as §1, §2, §3, §4, §5, §6, §7, §8, §9, §10

[6] = system: human lymphoma cells U937; experiment: MTT growth inhibition, U937 cells; assay type: cell-based; settings: Homo sapiens, U-937, 72 h after treatment, read-out: Drug concentration (IC50) at which 50% cancer cells survived
Method: as §2, §5, §6, §7, §8, §10

[7] = system: Caski human cervical cancer cells; experiment: MTT growth inhibition, Caski cells; assay type: cell-based; settings: Ca-Ski, 72 h after treatment, read-out: Drug concentration (IC50) at which 50% cancer cells survived
[8] = system: human prostate cancer cells PC-3; experiment: MTT growth inhibition, PC-3 cells; assay type: cell-based; settings: 72 h after treatment, read-out: Drug concentration (IC50) at which 50% cancer cells survived
From the text: as §1, §2, §3, §4, §5, §6, §7, §8, §9, §10

[9] = system: human pancreatic cancer cells BxPC3; experiment: MTT growth inhibition, BxPc3 cells; assay type: cell-based; settings: read-out: Drug concentration (IC50) at which 50% cancer cells survived
From the text: as §1, §2, §3, §4, §5, §6, §7, §8, §9, §10

[10] = system: human liver cancer cells HepG2; experiment: MTT growth inhibition, HepG2 cells; assay type: cell-based; settings: 72 h after treatment, read-out: Drug concentration (IC50) at which 50% cancer cells survived
From the text: as §1, §2, §3, §4, §5, §6, §7, §8, §9, §10

[11] = system: human breast cancer cells MDA-MB-231; experiment: MTT growth inhibition, MDA-MB-231 cells; assay type: cell-based; settings: 72 h after treatment, read-out: Drug concentration (IC50) at which 50% cancer cells survived
From the text: as §1, §2, §3, §4, §5, §6, §7, §8, §9, §10

[12] = system: human gastric cancer cells BGC-823; experiment: MTT growth inhibition, BGC-823 cells; assay type: cell-based; settings: 72 h after treatment, read-out: Drug concentration (IC50) at which 50% cancer cells survived
From the text: as §1, §2, §3, §4, §5, §6, §7, §8, §9, §10

[13] = system: human chronic leukemia cells K562; experiment: MTT growth inhibition, K562 cells; assay type: cell-based; settings: 72 h after treatment, read-out: Drug concentration (IC50) at which 50% cancer cells survived
From the text: as §1, §2, §3, §4, §5, §6, §7, §8, §9, §10

[14] = system: human pancreatic cancer cells PANC-1; experiment: MTT growth inhibition, PANC-1 cells; assay type: cell-based; settings: 72 h after treatment, read-out: Drug concentration (IC50) at which 50% cancer cells survived
From the text: as §1, §2, §3, §4, §5, §6, §7, §8, §9, §10

[15] = system: highly metastatic Lewis lung cancer cell lines; experiment: MTT growth inhibition, LLC cells; assay type: cell-based, mouse; settings: 72 h after treatment, read-out: Drug concentration (IC50) at which 50% cancer cells survived
From the text: as §1, §2, §3, §4, §5, §6, §7, §8, §9, §10

human neuroma cells D54 = experiment: MTT growth inhibition, D54 cells; assay type: cell-based; settings: Homo sapiens, 72 h after treatment, read-out: Drug concentration (IC50) at which 50% cancer cells survived
From the text: as §1, §2, §3, §4, §5, §6, §7, §8, §9, §10

[16] = system: human colon cancer cells HT29; experiment: MTT growth inhibition, HT29 cells; assay type: cell-based; settings: HT-29, 72 h after treatment, read-out: Drug concentration (IC50) at which 50% cancer cells survived
From the text: as §1, §2, §3, §4, §5, §6, §7, §8, §9, §10

[17] = system: human oral epidermoid cancer cells KBV200; experiment: MTT growth inhibition, KBV200 cells; assay type: cell-based; settings: 72 h after treatment, read-out: Drug concentration (IC50) at which 50% cancer cells survived
From the text: as §1, §2, §3, §4, §5, §6, §7, §8, §9, §10

[18] = system: human liver cancer cells SMMC7721; experiment: MTT growth inhibition, SMMC7721 cells; assay type: cell-based; settings: SMMC-7721, S-7721 (SMMC7721), 72 h after treatment, read-out: Drug concentration (IC50) at which 50% cancer cells survived
From the text: as §1, §2, §3, §4, §5, §6, §7, §8, §9, §10

[19] = Homo sapiens, BXPC-3, 72 h after treatment
[20] = Mus musculus, Lewis lung carcinoma

Compound | IC50 [1] | IC50 (mouse melanoma cells B16) | IC50 [2] | IC50 [3] | IC50 [4] | IC50 [5] | IC50 [6] | IC50 [7] | IC50 [8] | IC50 [9, 19] | IC50 [10] | IC50 [11] | IC50 [12] | IC50 [13] | IC50 [14] | IC50 [15, 20] | IC50 (human neuroma cells D54) | IC50 [16] | IC50 [17] | IC50 [18] | also measured
O=C(O)c1cc2cc(Cl)ccc2oc1=O [Compound IIIc, 6-chlorocoumarin-3-carboxylic acid] | 400 µM | 600 µM | 600 ± 30 µM | 350 ± 50 µM | 600 µM | 300 µM | 500 µM | 400 µM | 500 µM | 500 µM | 300 µM | 500 µM | 300 µM | 600 µM | 500 µM | 400 µM | 300 µM | 700 µM | 400 µM | 500 µM | –
O=C(O)c1cc2cc(Br)cc(Br)c2oc1=O [Compound IIIh, 6,8-dibromo-coumarin-3-carboxylic acid] | 350 µM | 460 µM | 450 µM | 550 µM | 290 µM | 450 µM | 390 µM | 135 µM | 410 µM | 400 µM | 145 µM | 420 µM | 480 µM | 480 µM | 480 µM | 350 µM | 300 µM | 590 µM | 300 µM | 530 µM | –
O=C(O)c1cc2cc(Cl)cc(Cl)c2oc1=O [Compound IIIg, 6,8-dichloro-coumarin-3-carboxylic acid] | 350 µM | 500 µM | 330 µM | 400 µM | 260 µM | 410 µM | 350 µM | 250 µM | 310 µM | 300 µM | 420 µM | 460 µM | 380 µM | 420 µM | 430 µM | 250 µM | 300 µM | 480 µM | 300 µM | 490 µM | –
O=C1OC(=O)[C@H]2[C@@H]1[C@@H]1CC[C@H]2O1 [Norcantharidin, reference compound] | – | – | – | – | – | – | – | – | – | – | – | – | – | – | – | – | – | – | – | – | IC50 ([9]; 72 h after treatment): 60 µM; IC50 [15]: 15 µM
O=C(O)c1cc2cc(Br)ccc2oc1=O [Compound IIId, 6-bromocoumarin-3-carboxylic acid] | – | 600 µM | 600 µM | 500 µM | 600 µM | 400 µM | 500 µM | – | 500 µM | – | – | 500 µM | 700 ± 50 µM | 600 µM | 500 µM | 400 µM | – | 700 µM | – | 500 µM | –
O=c1c(-c2ccc(O)cc2)coc2cc(O)cc(O)c12 [Genistein, reference compound] | – | – | – | – | – | – | – | – | – | – | – | – | 135 µM | – | – | – | – | – | – | – | –
